Measurements taken from patent US20250326744A1, “PIPERAZINE DERIVATIVE OR SALT THEREOF, AND PHARMACEUTICAL COMPOSITION” (priority 2022, published 2025).
Where a name gives a salt, the structure may show the parent alone.

Tests used:
mexY (EC) strain = assay: Efflux ability inhibition effect on drug efflux pump MexY (Test Examples 1 and 3): proliferation (OD595) of mexY (EC) strain with EM or LVFX at 1/4 MIC, EC75; type: cell-based, Escherichia coli; settings: Table 51, Test Example 1, 16 to 20 hours culture, OD595; for EC75, mexY (EC) strain, EM: combined with EM at 1/4 MIC; for EC75, mexY (EC) strain, LVFX: combined with LVFX at 1/4 MIC
How it was run: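 E. coli ΔacrB/ΔtolC strains carrying P. aeruginosa MexAB-OprM or MexXY-OprM were grown in LB for 16 to 20 hours with EM or LVFX at ¼ MIC plus compound (0 to 800 μM). Growth was read as OD595. EC75 is the lowest compound concentration giving ≥75% growth inhibition versus antibiotic alone.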

mexB (EC) strain = assay: Efflux ability inhibition effect on drug efflux pump MexB (Test Examples 1 and 3): proliferation (OD595) of mexB (EC) strain with EM or LVFX at 1/4 MIC, EC75; type: cell-based, Escherichia coli; settings: Table 51, Test Example 1, 16 to 20 hours culture, OD595; for EC75, mexB (EC) strain, EM: combined with EM at 1/4 MIC; for EC75, mexB (EC) strain, LVFX: combined with LVFX at 1/4 MIC
Experimental: The efflux ability inhibition effect of the test compound on the drug efflux pump was evaluated using the bacterial proliferative ability in the presence of EM or LVFX as an index.
EM is a macrolide antibacterial agent and is a drug that is discharged outside the bacteria by MexB and MexY LVFX is a quinolone antibacterial agent and is a drug that is discharged outside the bacteria by MexB and MexY In a case where the test compound has an efflux ability inhibitory ability against the drug efflux pump, the proliferation of bacteria is suppressed by the combined use of EM or LVFX and the test compound, as compared with the case where EM or LVFX is used alone.
A mutant strain (hereinafter, referred to as an “mexB (EC) strain”) obtained by transferring the genes of the main multidrug efflux system MexAB-OprM of Pseudomonas aeruginosa described in Nature, 2013, Vol. 500, pp. 102 to 106 as a plasmid into Escherichia coli strains in which the acrB and tolC genes of the multidrug efflux system AcrAB-TolC were deleted as described in Journal of Infection and Chemotherapy 2008, Vol. 14, pp. 23 to 29, and a gene transfer strain (hereinafter, referred to as an “mexY (EC) strain”) of another main multidrug efflux system MexXY-OprM of Pseudomonas aeruginosa were used for the evaluation of test compounds.
In the mexB (EC) strain, an expression level of MexB of the drug efflux pump is accelerated, and in the mexY (EC) strain, an expression level of MexY of the drug efflux pump is accelerated.
For culturing each Escherichia coli strain, a 96-well plate (amount of culture medium per well: 100 μL) was used and Luria-Bertani broth (LB) culture medium was used. The inoculation amount of the bacteria was set to 10^4 to 5 CFU/well.
The mexB (EC) strain and the mexY (EC) strain were cultured for 16 to 20 hours in a culture medium to which EM or LVFX and test compounds at various concentrations (0 to 800 μM) were added, and the proliferation of the bacterial strains was evaluated by optical turbidity at 595 nm (OD595). The concentration of the antibacterial agents (EM and LVFX) in the culture medium were each set to ¼ of the minimum inhibitory concentration (MIC) (hereinafter, referred to as ¼ MIC) of the single antibacterial agent.
The proliferation of bacteria in a case where the antibacterial agent was added at the concentration of ¼ MIC in a case where the test compound was not added was measured, and compared with the proliferation of bacteria in a case where the test compound was contained, and the lowest concentration of the test compound at which the proliferation was inhibited by 75% or more was defined as the drug efflux pump inhibitory ability of the test compound as 75% inhibitory effect concentration (EC75).
The drug efflux pump inhibitory ability of each test compound in a case of being used in combination with the antibacterial agent against the mexB (EC) strain and the mexY (EC) strain was evaluated as follows according to the value of EC75. • S: EC75≤[…] • A: 12.5 μM<EC75≤25 μM • B: 25 μM<EC75≤100 μM • C: […]
In the same manner as in Test Example 1, the efflux ability inhibition effect of the test compound on the drug efflux pump was evaluated using the bacterial proliferation ability in the presence of EM or LVFX as an index.

Row | Structure (SMILES) | EC75, mexY (EC) strain, EM (mexY (EC) strain) | EC75, mexY (EC) strain, LVFX (mexY (EC) strain) | EC75, mexB (EC) strain, EM (mexB (EC) strain) | EC75, mexB (EC) strain, LVFX (mexB (EC) strain)
1 | N[C@@H](C(=O)N1CCN(Cc2cscn2)CC1)C1CCN(CCc2cc(Cl)ccc2-c2ccccc2)CC1 [Example 13, Hydrobromide of (R)-2-amino-2-(1-(2-(4-chloro-[1,1′-biphenyl]-2-yl)ethyl)piperidin-4-yl)-1-(4-(thiazol-4-ylmethyl)piperazin-1-yl)ethan-1-one] | B (25 μM<EC75≤100 μM) | B (25 μM<EC75≤100 μM) | B (25 μM<EC75≤100 μM) | B (25 μM<EC75≤100 μM)
2 | CCOc1cccc(/C=C/C#N)c1CN1CCN(C(=O)[C@H](N)C2CCN(CCc3ccccc3)CC2)CC1 [Example 34] | A (12.5 μM<EC75≤25 μM) | A (12.5 μM<EC75≤25 μM) | B (25 μM<EC75≤100 μM) | B (25 μM<EC75≤100 μM)
3 | CCOc1cccc(F)c1CN1CCN(C(=O)[C@H](N)C2CCN(CC(F)(F)c3ccccc3)CC2)CC1 [Example 54, Hydrobromide of (R)-2-amino-2-(1-(2,2-difluoro-2-phenylethyl)piperidin-4-yl)-1-(4-(2-ethoxy-6-fluorobenzyl)piperazin-1-yl) ethan-1-one] | B (25 μM<EC75≤100 μM) | B (25 μM<EC75≤100 μM) | B (25 μM<EC75≤100 μM) | B (25 μM<EC75≤100 μM)
4 | COc1ccccc1CN1CCN(C(=O)[C@@H](N)C2CCN(CCc3ccccc3)CC2)CC1 [Example 112, Hydrochloride of (S)-2-amino-1-(4-(2-methoxybenzyl)piperazin-1-yl)-2-(1-phenethylpiperidin-4-yl)ethan-1-one] | A (12.5 μM<EC75≤25 μM) | A (12.5 μM<EC75≤25 μM) | B (25 μM<EC75≤100 μM) | B (25 μM<EC75≤100 μM)
5 | COCCOc1cccc(F)c1CN1CCN(C(=O)[C@H](N)C2CCN(CCc3ccccc3)CC2)CC1 [Example 116, Hydrochloride of (R)-2-amino-1-(4-(2-fluoro-6-(2-methoxyethoxy)benzyl)piperazin-1-yl)-2-(1-phenethylpiperidin-4-yl)ethan-1-one] | B (25 μM<EC75≤100 μM) | B (25 μM<EC75≤100 μM) | A (12.5 μM<EC75≤25 μM) | A (12.5 μM<EC75≤25 μM)
6 | CN[C@@H](C(=O)N1CCN(Cc2ccccc2OC)CC1)C1CCN(CCc2ccccc2)CC1 [Example 131, hydrochloride of (R)-1-(4-(2-methoxybenzyl)piperazin-1-yl)-2-(methylamino)-2-(1-phenethylpiperidin-4-yl)ethan-1-one] | B (25 μM<EC75≤100 μM) | B (25 μM<EC75≤100 μM) | B (25 μM<EC75≤100 μM) | B (25 μM<EC75≤100 μM)
7 | COc1ccccc1CN1CCN(C(=O)[C@H](N)C2CCN(CCc3ccsc3)CC2)CC1 [Example 133, hydrochloride of (R)-2-amino-1-(4-(2-methoxybenzyl)piperazin-1-yl)-2-(1-(2-(thiophen-3-yl)ethyl)piperidin-4-yl)ethan-1-one] | B (25 μM<EC75≤100 μM) | B (25 μM<EC75≤100 μM) | – | A (12.5 μM<EC75≤25 μM)
8 | COc1ccccc1CN1CCN(C(=O)[C@H](N)C2CCN(CC(CN)c3ccccc3)CC2)CC1 (stereo partly drawn) [Example 136, hydrochloride of (2R)-2-amino-2-(1-(3-amino-2-phenylpropyl)piperidin-4-yl)-1-(4-(2-methoxybenzyl)piperazin-1-yl)ethan-1-one] | B (25 μM<EC75≤100 μM) | B (25 μM<EC75≤100 μM) | B (25 μM<EC75≤100 μM) | –
9 | O=C(O)c1ccccc1CN1CCN(C(=O)CN2CCN(CCc3ccccc3)CC2)CC1 [Example 256, sodium salt of 2-((4-(2-(4-phenethylpiperazin-1-yl)acetyl)piperazin-1-yl)methyl)benzenecarboxylic acid] | B (25 μM<EC75≤100 μM) | – | B (25 μM<EC75≤100 μM) | –
10 | COc1ccccc1CN1CCN(C(=O)C(=NN)C2CCN(CCc3ccccc3)CC2)CC1 [Example 301, hydrochloride of 2-hydrazinyliden-1-(4-(2-methoxybenzyl)piperazin-1-yl)-2-(1-phenethylpiperidin-4-yl)ethan-1-one] | B (25 μM<EC75≤100 μM) | B (25 μM<EC75≤100 μM) | B (25 μM<EC75≤100 μM) | B (25 μM<EC75≤100 μM)
11 | COc1ccccc1CN1CCN(C(=O)C(=NO)C2CCN(CCc3ccccc3)CC2)CC1 [Example 302, hydrochloride of 2-(hydroxyimino)-1-(4-(2-methoxybenzyl)piperazin-1-yl)-2-(1-phenethylpiperidine-4-yl)ethan-1-one] | B (25 μM<EC75≤100 μM) | B (25 μM<EC75≤100 μM) | B (25 μM<EC75≤100 μM) | –
12 | COc1ccccc1CN1CCN(C(=O)CN2CCC(CN)(CCc3ccccc3)CC2)CC1 [Example 413, hydrochloride of 2-(4-(aminomethyl)-4-phenethylpiperidin-1-yl)-1-(4-(2-methoxybenzyl)piperazin-1-yl)ethan-1-one] | A (12.5 μM<EC75≤25 μM) | – | A (12.5 μM<EC75≤25 μM) | A (12.5 μM<EC75≤25 μM)
13 | COc1ccccc1CN1CCN(C(=O)CN2CCC(N)(CCc3ccccc3)CC2)CC1 [Example 414, hydrochloride of 2-(4-amino-4-phenethylpiperidin-1-yl)-1-(4-(2-methoxybenzyl)piperazin-1-yl)ethan-1-one] | B (25 μM<EC75≤100 μM) | B (25 μM<EC75≤100 μM) | – | A (12.5 μM<EC75≤25 μM)
14 | COc1ccccc1CN1CCN(C(=O)CN2CCC(NC(=O)c3ccc(O)c(O)c3Cl)CC2)CC1 [Example 418, hydrochloride of 2-chloro-3,4-dihydroxy-N-(1-(2-(4-(2-methoxybenzyl)piperazin-1-yl)-2-oxoethyl)piperidin-4-yl)benzamide] | – | A (12.5 μM<EC75≤25 μM) | B (25 μM<EC75≤100 μM) | B (25 μM<EC75≤100 μM)
15 | COc1ccccc1CN1CCN(C(=O)CN2CCC(NCc3ccccc3)CC2)CC1 [Example 419, hydrochloride of 2-(4-(benzylamino)piperidin-1-yl)-1-(4-(2-methoxybenzyl)piperazin-1-yl)ethan-1-one] | B (25 μM<EC75≤100 μM) | B (25 μM<EC75≤100 μM) | – | A (12.5 μM<EC75≤25 μM)
